Columns and labels:
Type in all cases: cell-based, human
[1] = test system: OE-19 esophageal adenocarcinoma cell line; experiment: DIMSCAN cytotoxicity, fenretinide + L-threo-sphinganines 3:1 (Example B19)
Procedure: Cytotoxicity Assay—Once again, cytotoxicity is determined using the DIMSCAN assay system (R. Proffitt et al., Cytometry 24, 204-213 (1996); T. Frgala et al., Mol Cancer Ther. 6:886-97, 2007). The system employs digital imaging microscopy to quantify viable cells, which selectively accumulate fluorescein diacetate to become brightly fluorescent. The system is capable of measuring cytotoxicity over a 4-5 log dynamic range by quenching the residual fluorescence of dead and dying cells with eosin Y and quantifying the total fluorescence of viable cells using digital thresholding. Measured fluorescence is directly proportionate to the number of viable cells. A comparison of the total fluorescence of a drug-treated cell population to the fluorescence of a similar number of untreated cells yields a survival fraction. In brief, 2000 to 10,000 cells/well (depending on size and growth rates) are replicate plated into 60 wells of a 96-well tissue culture plate in 0.1 mL of whole medium and allowed to attach overnight. Drug(s) are then added in 0.05 mL of whole medium to the final concentrations indicated. Drugs (fenretinide, and various chain length L-threo-sphinganines) were tested both as single agents and in a 3:1 ratio of fenretinide:sphinganine. C18-L-threo-sphinganine, or “safingol,” was also tested and results shown for reference. There are 12 wells treated per drug concentration. Twelve wells receive drug vehicle-only to the appropriate final concentration and serve as controls for the plate. Cells are incubated for 96 hours at 37° C. in ambient air with 5% CO2. Fluorescein diacetate is then added to each well in 0.05 mL media to a final concentration of 8 microgram/mL. Cells are incubated for a further 15 minutes at 37° C. and 0.03 mL of 0.5% eosin Y is added to each well. Total fluorescence of viable cells is then measured by digital imaging microscopy. Results were graphed as the ratio of the fluoresecence of drug-treated wells to non-drug treated control wells (i.e., Survival Fraction). All tests were performed at least twice. Representative results are shown.
The Combination Index (CI) is a term to describe mathematical modeling of the pharmacologic effects on cytotoxicity (cell death) of two drugs in combination based. Cytotoxic “synergy” is defined as a cell death affect which is greater than would be expected from a simple product of the single agent cytotoxicities alone (i.e. an “additive” effect). By Chou-Talalay analysis, a CI<0.9 on a Fraction Affected (“Fa”, i.e. fraction of cells killed) indicates synergy, with smaller numbers indicating greater synergy; a CI of 0.9-1.1 signifies an additive or near-additive effect; and a CI>1.1 means the drug combination is antagonistic.
Fenretinide and L-threo-sphinganines tested in human esophageal adenocarcinoma (esophagus cancer) cell lines, OE-19 and OE-33.

[2] = test system: HT-29 colon cancer cell line; experiment: DIMSCAN cytotoxicity dose-response with fenretinide, with or without D-threo-PPMP (Examples A, FIGS. 4, 10, 15, 21-23); conditions: +96 hrs; for C.I. (Combination Index) with fenretinide: at one or more doses; for C.I. of D-threo-PPMP with fenretinide+L-threo-sphinganine (three drug combination): D-threo-PPMP fixed 10 uM, at most doses
Procedure: (§1) Cytotoxicity Assay: Cytotoxicity in cell lines was determined using a fluorescence-based assay employing digital imaging microscopy (DIMSCAN)(after Fragala, et al, Mol Cancer Ther, 6:886-897, 2007). DIMSCAN quantitates viable cells which selectively accumulate fluorescein diacetate and is capable of measuring cytotoxicity over a 4-5 log dynamic range by quantifying total fluorescence per well (which is proportional to viable, clonogenic cells) after eliminating background fluorescence using digital thresholding and eosin Y quenching. Briefly, cell lines were seeded into 96-well plates in 100 µL of complete culture medium (10-20% serum) per well. Cells were incubated overnight in 2%, 5% or 20% oxygen (room air) prior to addition of drugs in […] volumes of complete medium to various final drug concentrations in replicates of 12 wells per concentration. In assays employing D-threo-PPMP, PPMP was employed at a fixed, minimally-toxic, final concentration of 10 μM in each well. Control wells received ethanol (final concentration=0.12%-0.20%) in complete medium equivalent to the maximum final ethanol concentration of drug-treated wells. Plates were incubated at various oxygen concentrations to simulate physiological hypoxia (i.e., 2% oxygen=typical solid tumor oxygen levels; 5%=bone marrow oxygen levels for leukemias; 20% room air=supraphysiological oxygen for comparison with typical laboratory culture conditions). Plates were assayed at 3-4 days after initiating drug exposure depending on the growth properties of each cell line, to allow for maximum cell death and outgrowth of surviving cells. To measure cytotoxicity, FDA (stock solution of 1 mg/ml in DMSO) was added, in 50 µL of complete medium per well, to a final concentration of 10 µg/ml. The plates were incubated for an additional 15-30 minutes at 37 C and then 30 µL of eosin Y (0.5% in normal saline) was added per well. Total fluorescence of each well was then measured using digital imaging microscopy.
FIGS. 1 to 26 illustrate the effect (Examples A1 through A26) of the claimed invention and were carried out using the procedures disclosed herein.

[3] = test system: drug-resistant CHLA-90 neuroblastoma cancer cell line; experiment: DIMSCAN cytotoxicity dose-response with fenretinide (Examples A, FIGS. 1, 7, 12); conditions: at one or more doses, +96 hrs
Procedure: as §1, with “microscopy. […]” for “microscopy.”

[4] = test system: MCF-7/ADR (OVCAR-8/ADR) ovarian cancer cell line; experiment: DIMSCAN cytotoxicity dose-response with fenretinide (Examples A, FIG. 16); conditions: 2% oxygen, at one or more doses, +96 hrs
Procedure: Cytotoxicity Assay: Cytotoxicity in cell lines was determined using a fluorescence-based assay employing digital imaging microscopy (DIMSCAN)(after Fragala, et al, Mol Cancer Ther, 6:886-897, 2007). DIMSCAN quantitates viable cells which selectively accumulate fluorescein diacetate and is capable of measuring cytotoxicity over a 4-5 log dynamic range by quantifying total fluorescence per well (which is proportional to viable, clonogenic cells) after eliminating background fluorescence using digital thresholding and eosin Y quenching. Briefly, cell lines were seeded into 96-well plates in 100 µL of complete culture medium (10-20% serum) per well. Cells were incubated overnight in 2%, 5% or 20% oxygen (room air) prior to addition of drugs in […] volumes of complete medium to various final drug concentrations in replicates of 12 wells per concentration. In assays employing D-threo-PPMP, PPMP was employed at a fixed, minimally-toxic, final concentration of 10 μM in each well. Control wells received ethanol (final concentration=0.12%-0.20%) in complete medium equivalent to the maximum final ethanol concentration of drug-treated wells. […] Total fluorescence of each well was then measured using digital imaging microscopy. […]

[5] = 4-HPR 1.5 μM + L-threo-sphinganine 0.5 μM
[6] = 4-HPR 3 μM + L-threo-sphinganine 1 μM
[7] = 4-HPR 6 μM + L-threo-sphinganine 2 μM
[8] = 4-HPR 9 μM + L-threo-sphinganine 3 μM

Row | Compound | CI [1, 5] | Fa [1, 5] | CI [1, 6] | Fa [1, 6] | CI [1, 7] | Fa [1, 7] | CI [1, 8] | Fa [1, 8] | C.I. (Combination Index) with fenretinide ([2]; 2% oxygen) | C.I. of D-threo-PPMP with fenretinide+L-threo-sphinganine (three drug combination) ([2]; 20% oxygen) | C.I. (Combination Index) with fenretinide [3] | C.I. (Combination Index) with fenretinide ([2]; oxygen not stated) | C.I. (Combination Index) with fenretinide [4] | C.I. of D-threo-PPMP with fenretinide+L-threo-sphinganine (three drug combination) ([2]; 2% oxygen)
1 | CCCCCCCCC[C@H](O)[C@@H](N)CO [C12] | 1.4 | 0.345 | 2.9 | 0.325 | 5.5 | 0.506 | >>1 | 0.632 |  |  |  |  |  | 
2 | CCCCCCCCCCCCCC[C@H](O)[C@@H](N)CO [C17, (2S,3S)-2-amino-1,3-heptadecanediol] | 0.3 | 0.314 | 0.3 | 0.462 | 0.2 | 0.689 | 0.2 | 0.743 | < 1 | < 1 | < 1 |  |  | 
3 | CCCCCCCCCCCCCCC[C@H](O)[C@@H](N)CO [C18, (2S,3S)-2-amino-1,3-octadecanediol, reference compound] | 0.7 | 0.281 | 0.4 | 0.464 | 0.2 | 0.709 | 0.2 | 0.799 |  |  |  |  |  | 
4 | CCCCCCCCCCCCCCCC[C@H](O)[C@@H](N)CO [C19, (2S,3S)-2-amino-1,3-nonadecanediol] | 1.0 | 0.094 | 1.6 | 0.109 | 1.6 | 0.173 | 1.1 | 0.272 |  | < 1 | < 1 | < 1 |  | 
5 | CCCCCCCCCCCCCCCCC[C@H](O)[C@@H](N)CO [C20, (2S,3S)-2-amino-1,3-icosanediol] | 3.2 | 0.352 | 6.6 | 0.438 | >>1 | 0.708 | >>1 | 0.771 |  |  | < 1 | < 1 | < 1 | < 1

Reference: US20110152267A1, “Compositions and Methods for Treating Hyperproliferative Disorders” (Texas Tech University System, priority 2009, published 2011)
